{
  "source": "paper PMC10575836",
  "about": "“Elevated acetate kinase (ackA) gene expression, activity, and biofilm formation observed in methicillin-resistant strains of Staphylococcus aureus (MRSA)” (Journal of Genetic Engineering & Biotechnology, 2023)",
  "molecular_target": "T1, recombinant ackA (S. aureus ATCC12600 acetate kinase) (Staphylococcus aureus, UniProt Q8NW53)",
  "T1 construct": "full-length, His-6 tag from pQE 30 (Sal I/Hind III), clone PSackA, expressed in E. coli DH5alpha, nickel column, 44 kDa on SDS-PAGE",
  "T1 sequence (Q8NW53 1-400)": "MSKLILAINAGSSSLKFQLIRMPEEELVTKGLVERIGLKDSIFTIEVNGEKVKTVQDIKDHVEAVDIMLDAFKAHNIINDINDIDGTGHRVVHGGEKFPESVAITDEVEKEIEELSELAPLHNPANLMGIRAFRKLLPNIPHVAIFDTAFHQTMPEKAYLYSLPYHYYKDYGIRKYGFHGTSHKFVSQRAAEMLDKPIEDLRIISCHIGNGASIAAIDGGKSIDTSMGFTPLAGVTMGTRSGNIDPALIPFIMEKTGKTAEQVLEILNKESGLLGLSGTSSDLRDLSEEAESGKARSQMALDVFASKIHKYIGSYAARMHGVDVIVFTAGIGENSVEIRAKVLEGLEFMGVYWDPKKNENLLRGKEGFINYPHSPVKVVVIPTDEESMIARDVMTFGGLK",
  "assay": "coupled pyruvate kinase / lactate dehydrogenase assay, NADH at […] nm",
  "format": "biochemical",
  "conditions": "2 mM potassium acetate, 1.5 mM ATP, 2 mM MgCl2, 100 mM Tris-HCl pH 7.3",
  "data": [
    {"smiles": "CC(=O)O", "note": "[potassium acetate]", "values": [
      {"measurement": "coupled pyruvate kinase / lactate dehydrogenase assay, NADH at 340 nm", "result": "Assays were initiated by the addition of either the cytosolic fraction or pure recombinant ackA"}
    ]}
  ]
}
